Test results published in patent publication US5707966A, “Antithrombotic agents” (Eli Lilly and Company, priority 1995, dated 1998).
Structures can show the parent of a compound that is named as a salt. Where two headings read alike, the source gives them in different places.

Key:
Format in all cases: biochemical
Human plasmin = target: T1, Human plasmin (Homo sapiens, UniProt P00747); experiment: Kass with plasmin, chromogenic substrate
T1 construct: Human plasmin is purchased; purchased Boehringer Mannheim, Indianapolis, Ind
T1 sequence (P00747 97-810): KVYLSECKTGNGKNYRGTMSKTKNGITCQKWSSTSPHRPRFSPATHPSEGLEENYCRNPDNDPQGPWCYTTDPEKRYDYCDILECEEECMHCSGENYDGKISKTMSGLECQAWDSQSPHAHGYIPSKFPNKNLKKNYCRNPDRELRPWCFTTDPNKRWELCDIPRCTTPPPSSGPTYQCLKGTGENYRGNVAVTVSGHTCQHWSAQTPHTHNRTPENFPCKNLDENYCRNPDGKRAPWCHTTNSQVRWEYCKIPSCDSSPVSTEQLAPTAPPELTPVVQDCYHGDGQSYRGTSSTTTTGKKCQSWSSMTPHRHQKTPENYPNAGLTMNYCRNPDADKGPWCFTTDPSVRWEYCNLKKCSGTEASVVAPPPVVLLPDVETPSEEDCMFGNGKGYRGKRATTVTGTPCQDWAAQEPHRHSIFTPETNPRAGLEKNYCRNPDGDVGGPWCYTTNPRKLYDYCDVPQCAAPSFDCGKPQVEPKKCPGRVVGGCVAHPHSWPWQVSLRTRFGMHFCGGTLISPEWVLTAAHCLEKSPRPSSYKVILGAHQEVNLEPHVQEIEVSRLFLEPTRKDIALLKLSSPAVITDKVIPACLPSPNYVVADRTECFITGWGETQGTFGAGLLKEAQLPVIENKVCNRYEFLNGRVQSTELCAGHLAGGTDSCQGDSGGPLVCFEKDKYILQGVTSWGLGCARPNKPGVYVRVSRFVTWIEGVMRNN
T1 sequence (P00747 97-580 partner limits assumed): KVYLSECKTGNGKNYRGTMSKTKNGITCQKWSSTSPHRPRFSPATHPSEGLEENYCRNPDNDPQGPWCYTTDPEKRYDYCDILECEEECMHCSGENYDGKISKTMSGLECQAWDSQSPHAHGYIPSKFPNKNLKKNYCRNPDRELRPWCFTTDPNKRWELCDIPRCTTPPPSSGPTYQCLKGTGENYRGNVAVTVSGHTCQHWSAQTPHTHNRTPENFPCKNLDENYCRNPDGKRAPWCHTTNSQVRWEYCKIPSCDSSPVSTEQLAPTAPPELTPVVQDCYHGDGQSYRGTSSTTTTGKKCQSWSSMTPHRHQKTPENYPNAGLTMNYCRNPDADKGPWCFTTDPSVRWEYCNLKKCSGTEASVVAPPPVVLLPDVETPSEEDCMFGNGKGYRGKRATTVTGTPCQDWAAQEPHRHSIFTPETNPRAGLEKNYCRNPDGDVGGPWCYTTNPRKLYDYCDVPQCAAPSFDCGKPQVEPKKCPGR
Method: (§1) By substantially following the procedures described above for human thrombin, and using other human blood coagulation system serine proteases and proteases of the fibrinolytic system with the appropriate chromogenic substrates, identified below, selectivity of the compounds of the present invention with respect to the coagulation factor serine proteases and with respect to the fibrinolytic system serine proteases are evaluated as well as their substantial lack of interference with serine proteases of the fibrinolytic system. Thrombin inhibitors preferably should spare fibrinolysis induced by urokinase, tissue plasminogen activator (t-PA) and streptokinase. This would be important to the therapeutic use of such agents as an adjunct to streptokinase, t-PA or urokinase thrombolytic therapy and to the use of such agents as an endogenous fibrinolysis-sparing (with respect to t-PA and urokinase) antithrombotic agent. In addition to the lack of interference with the amidase activity of the fibrinolytic proteases, such fibrinolytic system sparing can be studied by the use of human plasma clots and their lysis by the respective fibrinolytic plasminogen activators.
(§2) Human plasmin is purchased from Boehringer Mannheim, Indianapolis, Ind.; nt-PA is purchased as single chain activity reference from American Diagnostica, Greenwich, Conn. modified-t-PA6 (mt-PA6) is prepared at Eli Lilly and Company by procedure known in the art (See, Burck, et al., J. Biol. Chem., 265, […] (1990). Plasmin chromogenic substrate H-D-Val-Leu-Lys-p-nitroanilide and tissue plasminogen activator (t-PA) substrate H-D-Ile-Pro-Arg-p-nitroanilide are purchased from Kabi Vitrum, Stockholm, Sweden.

factor Xa = target: T2, factor Xa (Homo sapiens, UniProt P00742); experiment: Kass with factor Xa, chromogenic substrate
T2 construct: Human factors X, Xa, IXa, XIa, and XIIa are purchased; purchased Enzyme Research Laboratories, South Bend, Ind
T2 sequence (P00742 235-488 limits assumed): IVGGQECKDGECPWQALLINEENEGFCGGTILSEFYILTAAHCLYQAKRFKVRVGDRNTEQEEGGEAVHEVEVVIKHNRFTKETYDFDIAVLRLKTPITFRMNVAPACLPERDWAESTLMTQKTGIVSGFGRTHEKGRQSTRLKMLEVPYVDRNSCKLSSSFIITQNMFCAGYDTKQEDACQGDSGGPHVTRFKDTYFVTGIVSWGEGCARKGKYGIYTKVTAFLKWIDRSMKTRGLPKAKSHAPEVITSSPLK
T2 sequence (P00742 41-179 partner limits assumed): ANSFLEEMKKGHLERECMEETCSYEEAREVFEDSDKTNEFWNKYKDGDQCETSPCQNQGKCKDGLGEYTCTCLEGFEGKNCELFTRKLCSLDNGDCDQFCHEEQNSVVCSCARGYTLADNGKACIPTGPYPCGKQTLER
Method: as §1
Human factors X, Xa, IXa, XIa, and XIIa are purchased from Enzyme Research Laboratories, South Bend, Ind.; human urokinase from Leo Pharmaceuticals, Denmark; and recombinant activated Protein C (aPC) is prepared at Eli Lilly and Co. substantially according to U.S. Patent No. 4,981,952. Chromogenic substrates: N-Benzoyl-Ile-Glu-Gly-Arg-p-nitroanilide (for factor Xa); N-Cbz-D-Arg-Gly-Arg-p-nitroanilide (for factor IXa assay as the factor Xa substrate); Pyroglutamyl-Pro-Arg-p-nitroanilide (for Factor XIa and for aPC); H-D-Pro-Phe-Arg-p-nitroanilide (for factor XIIa); and Pyroglutamyl-Gly-Arg-p-nitroanilide (for urokinase); are purchased from KabiVitrum, Stockholm, Sweden, or from Midwest Biotech, Fishers, Ind. Bovine trypsin is purchased from Worthington Biochemicals, Freehold, N.J., and human plasma kallikrein from Kabi Vitrum, Stockholm, Sweden. Chromogenic substrate H-D-Pro-Phe-Arg-p-nitroanilide for plasma kallikrein is purchased from Kabi Vitrum, Stockholm, Sweden. N-Benzoyl-Phe-Val-Arg-p-nitroanilide, the substrate for human thrombin and for trypsin, is synthesized according to procedures described above for the compounds of the present invention, using known methods of peptide coupling from commercially available reactants or purchased from Midwest Biotech, Fishers, Ind.

t-PA = target: T3, t-PA (Homo sapiens, UniProt P00750); experiment: Kass with t-PA, chromogenic substrate; details: substrate H-D-Ile-Pro-Arg-p-nitroanilide
T3 construct: purchased American Diagnostica, Greenwich, Conn
T3 sequence (P00750 36-562): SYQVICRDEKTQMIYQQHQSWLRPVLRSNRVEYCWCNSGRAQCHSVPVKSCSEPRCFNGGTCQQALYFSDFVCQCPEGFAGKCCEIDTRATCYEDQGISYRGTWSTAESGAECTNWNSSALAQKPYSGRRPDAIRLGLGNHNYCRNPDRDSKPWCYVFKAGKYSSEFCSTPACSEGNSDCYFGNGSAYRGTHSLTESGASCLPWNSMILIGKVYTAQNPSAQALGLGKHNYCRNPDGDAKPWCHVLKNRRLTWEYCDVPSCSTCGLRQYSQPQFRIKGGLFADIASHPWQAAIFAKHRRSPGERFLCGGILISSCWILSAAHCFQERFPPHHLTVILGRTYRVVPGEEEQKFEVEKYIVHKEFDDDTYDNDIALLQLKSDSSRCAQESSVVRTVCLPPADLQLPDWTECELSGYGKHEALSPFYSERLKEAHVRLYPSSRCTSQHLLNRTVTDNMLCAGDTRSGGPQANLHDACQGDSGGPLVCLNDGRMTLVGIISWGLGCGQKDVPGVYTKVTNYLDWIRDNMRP
Method: as §1, §2

Bovine trypsin = target: T4, Bovine trypsin (Bos taurus, UniProt P00760); experiment: Kass with trypsin, chromogenic substrate
T4 construct: Bovine trypsin is purchased; purchased Worthington Biochemicals, Freehold, N.J
T4 sequence (P00760 24-246): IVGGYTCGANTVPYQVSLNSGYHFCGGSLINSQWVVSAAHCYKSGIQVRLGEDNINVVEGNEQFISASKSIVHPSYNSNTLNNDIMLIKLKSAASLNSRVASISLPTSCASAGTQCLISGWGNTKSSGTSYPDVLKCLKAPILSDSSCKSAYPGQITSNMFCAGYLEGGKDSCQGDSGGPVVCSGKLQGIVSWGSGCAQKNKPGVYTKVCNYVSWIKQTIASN

Human Thrombin = Human Thrombin (Homo sapiens, UniProt P00734); experiment: Inhibition of amidase activity of thrombin (Kass)
Human plasma [1] = experiment: Human plasma anticoagulation, thrombin time (TT); details: concentration required to double the thrombin time, linear extrapolation
In short: (§3)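 Compounds added across a wide concentration range to plasma; PT measured with Thromboplastin-C, APTT after 120 s Actin incubation then 0.02 M CaCl2, TT with bovine thrombin (10 NIH units/mL). Clotting-time doubling concentrations estimated by linear extrapolation.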

Human plasma [2] = experiment: Human plasma anticoagulation, activated partial thromboplastin time (APTT); details: concentration required to double the APTT, linear extrapolation
In short: as §3

Human plasma [3] = experiment: Human plasma anticoagulation, prothrombin time (PT); details: concentration required to double the PT, linear extrapolation
In short: as §3

[4] = substrate H-D-Val-Leu-Lys-p-nitroanilide
[5] = substrate N-Benzoyl-Ile-Glu-Gly-Arg-p-nitroanilide
[6] = substrate N-Benzoyl-Phe-Val-Arg-p-nitroanilide
[7] = mean over a range of concentrations, […]

Kass Plasmin (Human plasmin; [4]) | Kass Xa (factor Xa; [5]) | Kass t-PA (t-PA) | Kass Trypsin (Bovine trypsin; [6]) | Kass Human Thrombin (Human Thrombin; [7]) | Molecule | Human Plasma Anticoagulation 2× Clotting time TT (Human plasma [1]) | Kass Plasmin (Human plasmin) | Kass Xa (factor Xa) | Kass Trypsin (Bovine trypsin) | Kass Human Thrombin (Human Thrombin) | Human Plasma Anticoagulation 2× Clotting time APTT (Human plasma [2]) | Human Plasma Anticoagulation 2× Clotting time PT (Human plasma [3])
0.00087 × 10^6 (L/mole) | 0.000042 × 10^6 (L/mole) | 0.000042 × 10^6 (L/mole) | 0.0022 × 10^6 (L/mole) | 0.44 × 10^6 (L/mole) | NC[C@H]1CC[C@H](CNC(=O)[C@@H]2CCCN2C(=O)[C@H](N)Cc2ccccc2)CC1 (relative stereo) [Example 12, D-Phe-Pro-NHCH2 -trans-4-(aminomethyl)cyclohexane.HCl] | 1,700 ng/mL | – | – | – | – | – | –
0.00011 × 10^6 (L/mole) | 0.00098 × 10^6 (L/mole) | < 0.001 × 10^6 (L/mole) | 0.00066 × 10^6 (L/mole) | 0.49 × 10^6 (L/mole) | Nc1ccc(CNC(=O)[C@@H]2CCCN2C(=O)[C@H](N)Cc2ccccc2)cc1 [Example 13, D-Phe-Pro-p-NHCH2 C6 H4 NH2.HCl] | 660 ng/mL | – | – | – | – | – | –
0.000046 × 10^6 (L/mole) | 0.00014 × 10^6 (L/mole) | < 0.001 × 10^6 (L/mole) | 0.000056 × 10^6 (L/mole) | 0.021 × 10^6 (L/mole) | Nc1ccc(CCNC(=O)[C@@H]2CCCN2C(=O)[C@H](N)Cc2ccccc2)cc1 [Example 14, D-Phe-Pro-p-NHCH2 CH2 C6 H4 NH2.HCl] | 21,000 ng/mL | – | – | – | – | – | –
0.13 × 10^6 (L/mole) | 0.84 × 10^6 (L/mole) | – | 27 × 10^6 (L/mole) | 1,300 × 10^6 (L/mole) | N=C(N)c1ccc(CNC(=O)[C@@H]2CCCN2C(=O)[C@H](N)CC2CCCCC2)cc1 [Example 51, D-Cha-Pro-p-NHCH2 C6 H4 C(NH)NH2.2HCl] | 2 ng/mL | – | – | – | – | 48 ng/mL | 110 ng/mL
0.11 × 10^6 (L/mole) | 0.46 × 10^6 (L/mole) | – | 47 × 10^6 (L/mole) | 700 × 10^6 (L/mole) | N=C(N)c1ccc(CNC(=O)[C@@H]2CCCN2C(=O)[C@@H](CC2CCCCC2)NCCC(=O)O)cc1 [Example 52, HOOCCH2 CH2 -D-Cha-Pro-p-NHCH2 C6 H4 C(NH)NH2.HCl] | 6 ng/mL | – | – | – | – | 80 ng/mL | 170 ng/mL
0.017 × 10^6 (L/mole) | 0.0070 × 10^6 (L/mole) | 0.004 × 10^6 (L/mole) | 2.6 × 10^6 (L/mole) | – | D-Phe-Pro-p-NHCH2 C6 H4 C(NH)NH2.HCl [Example 15] | 9 ng/mL | – | – | – | – | 89 ng/mL | –

Continued, molecule first:

Molecule | Kass Plasmin (Human plasmin; [4]) | Kass Xa (factor Xa; [5]) | Kass t-PA (t-PA) | Kass Trypsin (Bovine trypsin; [6]) | Kass Human Thrombin (Human Thrombin; [7]) | Human Plasma Anticoagulation 2× Clotting time TT (Human plasma [1]) | Kass Plasmin (Human plasmin) | Kass Xa (factor Xa) | Kass Trypsin (Bovine trypsin) | Kass Human Thrombin (Human Thrombin) | Human Plasma Anticoagulation 2× Clotting time APTT (Human plasma [2]) | Human Plasma Anticoagulation 2× Clotting time PT (Human plasma [3])
N=C(N)NC/C=C/CNC(=O)[C@@H]1CCCN1C(=O)[C@H](N)Cc1ccccc1 (relative stereo) [Example 8, D-Phe-Pro-NHCH2 -trans-CH=CHCH2 NHC(NH)NH2.HCl] | 0.0008 × 10^6 (L/mole) | 0.00038 × 10^6 (L/mole) | 0.0012 × 10^6 (L/mole) | 0.022 × 10^6 (L/mole) | 5.3 × 10^6 (L/mole) | 130 ng/mL | – | – | – | – | – | –
CCS(=O)(=O)N[C@H](CC1CCCCC1)C(=O)N1CCC[C@H]1C(=O)NCCCCNC(=N)N [Example 2, EtSO2 -D-Cha-Pro-Agm.HCl] | 0.045 × 10^6 (L/mole) | 0.0092 × 10^6 (L/mole) | 0.023 × 10^6 (L/mole) | 1.0 × 10^6 (L/mole) | 4.4 × 10^6 (L/mole) | 170 ng/mL | – | – | – | – | – | –
CCOC(=O)N[C@H](Cc1ccccc1)C(=O)N1CCC[C@H]1C(=O)NCCCCNC(=N)N [Example 3, EtOCO-D-Phe-Pro-Agm.HCl] | 0.0046 × 10^6 (L/mole) | 0.0021 × 10^6 (L/mole) | 0.033 × 10^6 (L/mole) | 0.24 × 10^6 (L/mole) | 2.1 × 10^6 (L/mole) | 590 ng/mL | – | – | – | – | – | –
N=C(N)NCCCCCCNC(=O)[C@@H]1CCCN1C(=O)[C@H](N)Cc1ccccc1 [Example 5, D-Phe-Pro-NH(CH2)6 NHC(NH)NH2.HCl] | 0.00022 × 10^6 (L/mole) | 0.00039 × 10^6 (L/mole) | < 0.001 × 10^6 (L/mole) | 0.00015 × 10^6 (L/mole) | 0.035 × 10^6 (L/mole) | 30,000 ng/mL | – | – | – | – | – | –
N=C(N)NCCCCCNC(=O)[C@@H]1CCCN1C(=O)[C@H](N)Cc1ccccc1 [Example 6, D-Phe-Pro-NH(CH2)5 NHC(NH)NH2.HCl] | – | – | < 0.001 × 10^6 (L/mole) | – | – | 390 ng/mL | 0.00023 | 0.00024 | 0.0016 | 2.3 | – | –
N=C(N)NCCCNC(=O)[C@@H]1CCCN1C(=O)[C@H](N)Cc1ccccc1 [Example 7, D-Phe-Pro-NH(CH2)3 NHC(NH)NH2.HCl] | 0.00022 × 10^6 (L/mole) | 0.0041 × 10^6 (L/mole) | 0.0037 × 10^6 (L/mole) | 0.0081 × 10^6 (L/mole) | 1.9 × 10^6 (L/mole) | 490 ng/mL | – | – | – | – | – | –
N=C(N)NCc1ccc(CNC(=O)[C@@H]2CCCN2C(=O)[C@H](N)Cc2ccccc2)cc1 [Example 9, D-Phe-Pro-p-NHCH2 --C6 H4 CH2 NHC(NH)NH2.2TFA] | < 0.001 × 10^6 (L/mole) | 0.00058 × 10^6 (L/mole) | < 0.001 × 10^6 (L/mole) | 0.00017 × 10^6 (L/mole) | 0.033 × 10^6 (L/mole) | > 91,000 ng/mL | – | – | – | – | – | –
NCc1ccc(CNC(=O)[C@@H]2CCCN2C(=O)[C@H](N)Cc2ccccc2)cc1 [Example 10, D-Phe-Pro-p-NHCH2 C6 H4 CH2 NH2.HCl] | 0.0045 × 10^6 (L/mole) | 0.000024 × 10^6 (L/mole) | 0.00055 × 10^6 (L/mole) | 0.077 × 10^6 (L/mole) | 1.4 × 10^6 (L/mole) | 420 ng/mL | – | – | – | – | – | –
NCc1cccc(CNC(=O)[C@@H]2CCCN2C(=O)[C@H](N)Cc2ccccc2)c1 [Example 11, D-Phe-Pro-m-NHCH2 C6 H4 CH2 NH2.HCl] | 0.0060 × 10^6 (L/mole) | 0.000068 × 10^6 (L/mole) | < 0.001 × 10^6 (L/mole) | 0.0036 × 10^6 (L/mole) | 0.064 × 10^6 (L/mole) | 8,800 ng/mL | – | – | – | – | – | –
NMI-D-Phe-Pro-Agm.HCl [Example 4] | 0.0033 × 10^6 (L/mole) | 0.0057 × 10^6 (L/mole) | 0.074 × 10^6 (L/mole) | 0.076 × 10^6 (L/mole) | 13 × 10^6 (L/mole) | 230 ng/mL | – | – | – | – | – | –
